According to PubChem BioAssay (NCI):
Values joined by “and” are separate entries in the source; they are usually repeats but may differ in a detail not shown here. Equal entries are not always repeated.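 Test compounds were applied to cells in 96-well plates for 48 hours at 5 doses. GI50 is the concentration that inhibits growth by half. The concentration for full growth arrest is given as TGI.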

Assays:
Experiment in all cases: inhibition of tumour cell growth, NCI panel, 48 h
HOP-18 NSCLC = system: HOP-18 NSCLC
LXFL 529 NSCLC = system: LXFL 529 NSCLC
XF 498 CNS = system: XF 498 CNS
KM20L2 colon = system: KM20L2 colon
RXF-631 renal = system: RXF-631 renal
SNB-78 CNS = system: SNB-78 CNS
DMS 273 small cell lung = system: DMS 273 small cell lung
MDA-N = system: MDA-N
DMS 114 small cell lung = system: DMS 114 small cell lung

| Structure (SMILES) | TGI (HOP-18 NSCLC) | TGI (LXFL 529 NSCLC) | TGI (XF 498 CNS) | TGI (KM20L2 colon) | TGI (RXF-631 renal) | TGI (SNB-78 CNS) | TGI (DMS 273 small cell lung) | TGI (MDA-N) | TGI (DMS 114 small cell lung) | other results |
| --- | --- | --- | --- | --- | --- | --- | --- | --- | --- | --- |
| O=C1C(=O)N(c2ccc(Cl)cc2Cl)C(=O)C(=O)C1c1nc2ccccc2o1 | > 100 µM | > 100 µM | > 100 µM | > 100 µM | > 100 µM | > 100 µM | > 100 µM |  |  |  |
| COc1ccc(/C=C\c2cc(OC)c(OC)c(OC)c2)cc1OC(=O)CCC(=O)O |  |  |  |  |  |  |  | > 100 µM |  |  |
| CC(=O)CCCCO |  | > 100 µM | > 100 µM |  |  | > 100 µM | > 100 µM |  | > 100 µM |  |
| COc1cccc(Cc2c3cc(OC)ccc3cc[n+]2C)c1 |  | > 100 µM | 70.7 µM | > 100 µM |  | > 100 µM |  |  |  |  |
| CC(=O)OC1CC2(O)C3CCC4CC(O)CCC4(C)C3CCC2(C)C1C1=CC(=O)OC1 (centres undefined) |  |  |  |  |  |  |  | 0.317 µM |  |  |
| COc1ccccc1NC(=O)C1=C(C)NC(C)=C(C(=O)Nc2ccccc2OC)C1c1ccc(C)cc1 | > 100 µM | > 100 µM | > 100 µM | > 100 µM |  | > 100 µM | > 100 µM |  | > 100 µM |  |
| CCOC(=O)C1SC(=Nc2ccc(Cl)c(Cl)c2)N=C1C (centres undefined) | > 100 µM | > 100 µM | > 100 µM | 78.8 µM | > 100 µM |  | > 100 µM |  |  |  |
| CCSC1=C(C)N(C=NC(C)(C)C)CC1 | > 100 µM | > 100 µM | > 100 µM | > 100 µM | > 100 µM | > 100 µM | > 100 µM |  | > 100 µM |  |
| C/C(=N\N=C(/[Se])N1CC2CCC(CC2)C1)c1ccccn1 | 1.98 µM | 0.0256 µM | 0.0981 µM | 0.682 µM | 3.88 µM | 2.88 µM | 1.79 µM | 2.6 µM | < 0.0229 µM |  |
| COc1cc(/C=C2\CCC(CN(C)C)C2=O)ccc1OC(=O)c1ccccc1 (centres undefined) | 30.9 µM | 9 µM | 34.6 µM | 30.3 µM | 23.6 µM | 39.9 µM | 27.4 µM | 29.6 µM | 40.9 µM |  |
| O=C(O)c1cc(N=Cc2ccccc2O)cc(C(=O)O)c1 |  |  |  |  |  |  |  | > 100 µM |  |  |
| NC(N)=NNC(=O)CCCCCCCC(=O)NN=C(N)N |  | > 100 µM |  | > 100 µM | > 100 µM | > 100 µM | > 100 µM |  | > 100 µM |  |
| O=C(CC(=O)N1N=C(N2c3ccccc3Sc3ccccc32)CC1c1ccccc1)Nc1ccc(Cl)cc1 (centres undefined) | > 100 µM | > 100 µM | > 100 µM | > 100 µM |  | > 100 µM | > 100 µM |  | > 100 µM |  |
| c1ccc(-c2nc(-c3ccccc3)c(-c3ccccc3)[nH]2)cc1 |  |  |  |  |  |  |  | > 100 µM |  |  |
| Nc1c(C(=O)Nc2ccccc2)[n+]([O-])c2ccccc2[n+]1[O-] | 26.3 µM | 28.1 µM | 32.6 µM | 34.7 µM |  | 40.4 µM | 46.9 µM |  | 26.8 µM |  |
| COc1cc2c[n+](C)c3c4ccccc4ccc3c2cc1OC (tested in a mixture with another compound) | 76.8 µM | 16 µM | 17.7 µM | 37.9 µM | > 66.1 µM |  | 15.7 µM | 20.5 µM | 14.6 µM |  |
| CCN(CCCl)CCCNc1c2ccccc2nc2ccc(OC)cc12 |  | 1.7 µM |  | 2.2 µM |  |  |  |  | 1.76 µM | GI50 (XF 498 CNS): 381 µM; GI50 (SNB-78 CNS): 585 µM; GI50 (DMS 273 small cell lung): 177 µM |

| Structure (SMILES) | TGI (HOP-18 NSCLC) | TGI (LXFL 529 NSCLC) | TGI (XF 498 CNS) | TGI (KM20L2 colon) | TGI (RXF-631 renal) | TGI (SNB-78 CNS) | TGI (DMS 273 small cell lung) | TGI (MDA-N) | TGI (DMS 114 small cell lung) | other results |
| --- | --- | --- | --- | --- | --- | --- | --- | --- | --- | --- |
| CC(C)(C)C(=O)ON1N=NC2C3CC(OCc4ccccc4)(OCc4ccccc4)C(O3)C21 (centres undefined) | 94.2 µM | 25.8 µM | 33.5 µM | 77.5 µM | 82.1 µM | > 100 µM | 51.2 µM |  |  |  |
| O=C1c2c(n(Cc3ccccc3)c(=O)n2Cc2ccccc2)C(=O)N1Cc1ccccc1 | > 100 µM | > 100 µM | 98.5 µM | > 100 µM | > 100 µM | > 100 µM | > 100 µM |  | > 100 µM |  |
| Cc1cc(NS(=O)(=O)c2ccc(NC(=O)c3cccc4c(Nc5ccc(S(=O)(=O)N=C(N)N)cc5)c5ccccc5nc34)cc2)no1 |  | > 100 µM |  | > 100 µM | > 100 µM | > 100 µM | > 100 µM |  |  |  |
| O=C(OCC1CO1)c1cccs1 (centres undefined) |  | > 100 µM | > 100 µM | > 100 µM | > 100 µM | > 100 µM | > 100 µM |  | > 100 µM |  |
| COc1cccc(/C=C/c2cnc3ccccc3n2)c1OC |  |  |  |  |  |  |  | > 100 µM |  |  |
| COc1cc2c(cc1O)CC13CCC(=O)N1CCc1cc(OC)c(O)c-2c13 (centres undefined) | > 68.1 µM | > 68.1 µM |  | > 68.1 µM | > 68.1 µM | > 68.1 µM |  |  | > 68.1 µM |  |
| CCOC(=O)C(=Cc1ccc(C(=O)OC)cc1)C(=O)OCC | 10.7 µM | 3.62 µM |  | 14.1 µM |  |  | 3.9 µM |  | 3.74 µM |  |
| CC(=O)OCC1OC(OC2CC3C(C)(C)C(O)CC[C@]3(C)C3CCC45CC4(CC[C@H]5C(C)CC(O)C4OC4(C)C)[C@]23C)C(O)C(O)C1O (some centres undefined) | 13.6 µM and 17.5 µM | 12.2 µM and 12.6 µM | 14.3 µM | 15.6 µM and 24.2 µM |  |  | 15.1 µM and 15.7 µM |  | 11.3 µM and 21.3 µM | GI50 (HOP-18 NSCLC): 5.27 µM; GI50 (LXFL 529 NSCLC): 2.92 µM; GI50 (KM20L2 colon): 11.9 µM; GI50 (DMS 114 small cell lung): 6.7 µM; GI50 (DMS 273 small cell lung): 4.44 µM |
| COc1ccc(/C=C/C(=O)Oc2cc(O)cc(O)c2)cc1 |  |  |  |  |  |  |  | > 100 µM |  |  |
| CCN(c1ccc(Br)cc1)c1c(Br)c(=O)nc2ccccn12 |  | > 100 µM | > 100 µM | > 100 µM | > 100 µM | > 100 µM | > 100 µM |  | > 100 µM |  |
| CN1CC(C(=O)C2C(=O)c3ccccc3C2=O)C(=O)C(=O)C(C(=O)C2C(=O)c3ccccc3C2=O)C1 (centres undefined) |  |  | > 100 µM |  | > 100 µM |  | > 100 µM |  | > 100 µM |  |
| c1ccc2c(c1)[nH]c1cnc3c4cccnc4[nH]c3c12 | 36.7 µM | 35.5 µM |  |  |  | 46.6 µM |  |  | 37.4 µM |  |
| NC(=O)C(c1ccccc1)N1CCOCC1 (centres undefined) | > 100 µM | > 100 µM |  | > 100 µM |  | > 100 µM | > 100 µM |  | > 100 µM |  |
| COC(=O)C1(F)C(=O)NC(=O)NC1O (centres undefined) |  |  |  |  |  |  |  | > 100 µM |  |  |
| O=C(C(=O)N1CC2C=CC1CC2)c1c[nH]c2ccccc12 (centres undefined) | > 100 µM | > 100 µM |  | > 100 µM | > 100 µM | > 100 µM | > 100 µM |  | > 100 µM |  |
| Fc1ccc(C2SCc3nc4ccccc4n32)cc1 (centres undefined) |  | > 100 µM | > 100 µM |  |  | > 100 µM |  |  | > 100 µM |  |
| Cc1ccc(SC2=CC(=O)c3nc4ccccc4c4ccnc2c34)cc1 |  |  |  |  |  |  |  | > 75 µM |  | GI50 (MDA-N): 28.8 µM |
